Legend:
rat IP [1] = biological target: T1, rat IP (Rattus norvegicus, UniProt P43253); test: Radioligand binding, rat IP ([3H]-iloprost); parameters: expressed in transfected cells; host or cells: CHO-K1 (crude membranes); conditions: radioligand, recombinant receptor membranes; read-out: measured Kd, rat IP
Procedure: (§1) CHO-K1 cells expressing recombinant IP receptors were harvested, washed with ice-cold phosphate buffered saline, pH 7.4 (PBS), and then centrifuged at 48 000g for 20 min at 4 °C. The resulting cell pellet was then resuspended in ice-cold PBS containing 20 mM HEPES, pH 7.4, and 0.1 mM EDTA, homogenized on ice using a Brinkman Polytron, and centrifuged (48 000g for 20 min at 4 °C). This resuspension and centrifugation process was repeated one further time. Crude membrane pellets were stored at −80 °C until used for radioligand binding assays.
(§2) Assay incubations were terminated by rapid filtration through PerkinElmer GF/C filtration plates pretreated with 0.3% PEI, under vacuum pressure using a 96-well Packard filtration apparatus, followed by multiple washes with ice-cold wash buffer (PBS containing 20 mM HEPES and 0.1 mM EDTA, pH 7.4). Plates were then dried at 45 °C for a minimum of 2 h. Finally, 25 μL of BetaScint scintillation cocktail was added to each well and plates were counted in a Packard TopCount scintillation counter. In each competition study, test compounds were dosed at 10 concentrations with triplicate determinations at each test concentration. A reference compound, typically iloprost, was included in every runset for quality control purposes.

dog IP = dog IP (Canis lupus familiaris, UniProt A0A8I3MUB8); test: Radioligand binding, dog IP ([3H]-iloprost); conditions: radioligand, recombinant receptor membranes; read-out: measured Kd, dog IP
dog IP, sequence (A0A8I3MUB8 1-381): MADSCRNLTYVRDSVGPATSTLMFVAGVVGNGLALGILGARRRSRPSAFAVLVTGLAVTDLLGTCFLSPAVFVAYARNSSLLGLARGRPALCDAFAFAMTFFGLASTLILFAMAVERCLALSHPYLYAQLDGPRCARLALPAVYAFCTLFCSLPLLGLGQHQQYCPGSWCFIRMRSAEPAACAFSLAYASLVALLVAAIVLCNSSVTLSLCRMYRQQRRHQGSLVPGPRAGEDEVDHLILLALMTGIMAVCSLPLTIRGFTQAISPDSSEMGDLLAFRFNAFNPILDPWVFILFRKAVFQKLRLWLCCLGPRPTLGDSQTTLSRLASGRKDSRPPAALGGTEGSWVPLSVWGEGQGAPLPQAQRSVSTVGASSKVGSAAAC
Procedure: as §1, §2

monkey IP = test: Radioligand binding, monkey IP ([3H]-iloprost); conditions: radioligand, recombinant receptor membranes; read-out: measured Kd, monkey IP
Procedure: as §1
as §2, with “concentration.” for “concentration. A reference compound, typically iloprost, was included in every runset for quality control purposes.”

[2] = Stability in human microsome preparations; type: in vitro ADME; conditions: incubation at 37 °C, human microsomes; read-out: human MS, T1/2
Text: (§3) Table 1 Screening Data for Selected Analogues ^a | column: human and rat MS, T1/2 (min) ^g

IP [3] = biological target: T2, IP (Homo sapiens, UniProt P43119); test: HTRF cAMP assay, recombinant human IP receptor stably expressed in CHO-K1 cells; type: cell-based; parameters: expressed in transfected cells; conditions: for Emax: CHO-K1, read-out: hIP % IA; for EC50: HTRF (cAMP) human IP receptor assay, mean of at least three determinations
T2 sequence (P43119 whole entry): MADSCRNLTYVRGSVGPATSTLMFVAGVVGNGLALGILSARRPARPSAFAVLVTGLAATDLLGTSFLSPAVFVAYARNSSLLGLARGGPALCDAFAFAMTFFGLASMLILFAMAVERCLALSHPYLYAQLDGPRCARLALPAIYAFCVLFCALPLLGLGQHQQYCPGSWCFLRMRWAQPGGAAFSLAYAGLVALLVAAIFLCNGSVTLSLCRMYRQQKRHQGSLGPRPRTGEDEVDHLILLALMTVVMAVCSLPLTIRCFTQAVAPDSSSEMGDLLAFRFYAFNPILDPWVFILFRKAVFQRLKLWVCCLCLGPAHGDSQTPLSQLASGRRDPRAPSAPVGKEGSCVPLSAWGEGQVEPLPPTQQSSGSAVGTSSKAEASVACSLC
Procedure: (§4) The new compounds were tested for functional agonist activity in a standard (Cisbio) cAMP assay using recombinant IP or DP1 receptors stably expressed in CHO-K1 cells. Clonal cell lines were derived following standard protocols, but receptor expression levels were kept to a minimum to preclude receptor reserve effects.
(§5) For development of cAMP accumulation assays, recombinant IP or DP1 receptors were stably expressed in CHO-K1 cells and clonal cell lines derived following standard protocols. Receptor expression levels were minimized to preclude receptor reserve effects. HTRF cAMP assays were performed according to the manufacturer’s instructions (Cisbio, cAMP Dynamic 2 assay kit; no. 62AM4PEJ). IP receptor-expressing cells were harvested, resuspended in assay buffer (PBS containing 1 mM IBMX and 0.2% BSA) at a density of 200 000 cells per mL, and dispensed into 384-well assay plates (PerkinElmer Proxiplate no. 6008280) at 5 μL per well. Test compounds were solubilized and serially diluted in DMSO using 5-fold dilutions to generate a 10-point dose–response curve with a top concentration of 10 μM. The samples were then further diluted in PBS to achieve a 2× stock. Diluted compounds were then transferred to a triplicate set of assay plates (5 μL per well). After a 1 h incubation at room temperature, 5 μL of cAMP-D2 reagent diluted in lysis buffer was added to each well followed by 5 μL of cryptate reagent. Plates were then incubated at room temperature for 1 h prior to reading. Time-resolved fluorescence measurements were collected on PerkinElmer Envision or BMG Pherastar microplate readers.

rat IP [4] = biological target: T1, rat IP; test: HTRF cAMP assay, recombinant rat IP receptor; type: cell-based; parameters: expressed in transfected cells
Procedure: as §4, §5

human DP1 receptor [5] = biological target: T3, human DP1 receptor (Homo sapiens, UniProt Q13258); test: HTRF cAMP assay, recombinant human DP1 receptor in CHO-K1 cells; type: cell-based
T3 construct: expressed in transfected cells
T3 sequence (Q13258 1-359): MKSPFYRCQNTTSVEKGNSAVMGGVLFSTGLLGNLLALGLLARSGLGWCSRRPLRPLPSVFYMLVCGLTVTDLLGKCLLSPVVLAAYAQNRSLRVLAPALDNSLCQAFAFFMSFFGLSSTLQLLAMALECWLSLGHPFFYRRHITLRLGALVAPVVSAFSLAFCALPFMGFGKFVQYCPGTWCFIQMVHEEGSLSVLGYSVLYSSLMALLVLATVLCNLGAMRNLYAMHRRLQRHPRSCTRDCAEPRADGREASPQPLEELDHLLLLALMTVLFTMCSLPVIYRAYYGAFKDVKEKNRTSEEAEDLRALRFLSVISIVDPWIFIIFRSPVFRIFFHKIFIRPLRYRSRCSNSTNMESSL
Procedure: as §4, §5

[6] = test system: prostaglandin receptors other than DP1; test: Panel assays of prostaglandin receptors in melanophores; type: cell-based
human platelet = test: Inhibition of ADP-induced human platelet aggregation; type: cell-based; conditions: aggregation induced by 2.5 μM ADP, mean of at least two determinations
Procedure: Such aggregated and activated platelets produce vasoactive substances such as thromboxane and serotonin that may cause harmful vasoconstriction and vascular remodeling.[13] […] This secondary assay was carried out as previously described,[14] with aggregation induced by 2.5 μM ADP in the presence or absence of IP receptor agonists.

[7] = Stability in rat microsome preparations; type: in vitro ADME; conditions: incubation at 37 °C, rat microsomes; read-out: rat MS, T1/2
Text: as §3

human DP1 receptor [8] = biological target: T3, human DP1 receptor; conditions: earlier series; cited from earlier work
[9] = Metabolite profile of 5c in the rat; type: in vivo; conditions: rat, after dosing of 5c
Text: (§6) A taurine-conjugated metabolite was subsequently identified in bile (M1, Figure 4), which was also observed in circulating plasma, although at much lower concentrations (∼5%) compared to parent. Further, two oxidized products, one of which was also a taurine-conjugate, were identified (M2 and M3) in plasma. […] It is known that taurine can be conjugated to bile acids and these conjugates may be hydrolyzed in the gut which allows for bile acid reabsorbtion.[19]

[10] = Incubation in simulated gastric fluid; type: physicochemical; conditions: room temperature, 3 h
Text: as §6

IP [11] = biological target: T2, IP; test: Radioligand binding, human IP ([3H]-iloprost); parameters: expressed in transfected cells; host or cells: CHO-K1 (crude membranes); conditions: Figure 4; read-out: Ki hIP
Procedure: as §1
as §2, with “concentration.” for “concentration. A reference compound, typically iloprost, was included in every runset for quality control purposes.”

T1 sequence (P43253 whole entry): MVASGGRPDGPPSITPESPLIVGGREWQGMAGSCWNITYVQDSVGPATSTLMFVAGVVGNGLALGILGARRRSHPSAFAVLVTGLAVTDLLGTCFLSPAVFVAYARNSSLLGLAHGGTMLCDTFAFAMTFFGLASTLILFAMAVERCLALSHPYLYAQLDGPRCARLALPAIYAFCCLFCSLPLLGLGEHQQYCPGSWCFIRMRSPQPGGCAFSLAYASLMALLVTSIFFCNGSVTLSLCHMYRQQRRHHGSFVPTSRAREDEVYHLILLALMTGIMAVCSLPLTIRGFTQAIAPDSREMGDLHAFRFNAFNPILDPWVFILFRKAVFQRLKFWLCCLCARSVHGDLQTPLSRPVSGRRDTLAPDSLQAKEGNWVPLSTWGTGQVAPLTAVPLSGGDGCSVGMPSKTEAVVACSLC

## [^3H]-iloprost [reference compound]
Rat IP [1]
  Kd: 7 nM
Dog IP
  Kd: 15.4 nM
Monkey IP
  Kd: 11.9 nM

## O=C(O)COC[C@H]1CC[C@H](COC(=O)N(c2ccccc2)c2ccccc2)CC1 [5a, 2-(((1r,4r)-4-((Diphenylcarbamoyloxy)methyl)cyclohexyl)methoxy)acetic Acid]
[2]
  half-life: > 1 h
IP [3]
  Emax: 77%
  EC50: 21 nM
Rat IP [4]; HTRF (cAMP) rat IP receptor assay, mean of at least three determinations
  EC50: 365 nM
Rat IP [4]; read-out: rIP % IA
  Emax: 89%
Human DP1 receptor [5]; CHO-K1, intrinsic activity relative to 1 μM PGD2, read-out: hDP1 % IA
  Emax: 59%
Human DP1 receptor [5]; HTRF (cAMP) human DP1 receptor assay, mean of at least three determinations, read-out: EC50 hDP1
  EC50: 355 nM
[6]
  activity at prostaglandin receptors other than DP1: no activity
Human platelet
  IC50: 25 nM
[7]
  half-life: > 1 h

## O=C(O)COc1cccc2c1CC[C@H](Cn1ncc(-c3cccc(F)c3F)c(-c3ccc(F)cc3)c1=O)C2 [compound 3]
Human DP1 receptor [8]
  IP to DP1 selectivity ratio: 8 fold

## O=C(COC[C@H]1CC[C@H](COC(=O)N(c2ccccc2)c2ccc(Cl)cc2)CC1)NCCS(=O)(=O)O [M1, 2-(2-(((1r,4r)-4-(((4-Chlorophenyl)(phenyl)carbamoyloxy)methyl)cyclohexyl)methoxy)acetamido)ethanesulfonic Acid]
[9]
  concentration in circulating plasma compared to parent: ~5%
IP [3]
  Emax: 76%
  EC50: 930 nM
[10]
  chemical degradation to the parent in simulated gastric fluid: little chemical degradation
IP [11]
  Ki: 400 nM

From paper PMC11602115 (Journal of Medicinal Chemistry, 2017)
